# Experimental data as given in PMC8041284, “Tunable Methacrylamides for Covalent Ligand Directed Release Chemistry” (Journal of the American Chemical Society, 2021).
# Where two headings read alike, the source gives them in different places.
# Target: BTK (Homo sapiens, UniProt Q06187)
# Experiment: biochemical
# [1] = read-out: BTK inhibition (%), 0.75 uM BTK, […] probe 3l, 15 min preincubation
# Chain of BTK (Q06187 402-655 limits assumed): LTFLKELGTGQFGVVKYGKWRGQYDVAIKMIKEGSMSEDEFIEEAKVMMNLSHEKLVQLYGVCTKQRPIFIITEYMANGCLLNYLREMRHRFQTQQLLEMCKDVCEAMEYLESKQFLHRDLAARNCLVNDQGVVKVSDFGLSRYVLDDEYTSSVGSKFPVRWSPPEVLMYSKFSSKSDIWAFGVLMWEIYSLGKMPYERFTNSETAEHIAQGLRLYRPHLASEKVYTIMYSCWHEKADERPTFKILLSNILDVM
SMILES,inhibition at 10 µM [1] [%],inhibition at 10 µM (read-out: BTK inhibition (%)) [%]
O=P(O)(O)C(Cl)(Cl)P(=O)(O)O [PCM-0065307],-23.8,–
O=C(O)CCN1C(=O)/C(=C/c2ccc(-c3ccc([N+](=O)[O-])cc3)o2)SC1=S [PCM-0215696],59.5,–
Cc1cc(C)c(Nc2ccnc(Nc3ccc(C#N)cc3)n2)c(C)c1 [PCM-0095398],7,–
COCCCc1sc(-c2ccccc2)nc1C(=O)Nc1ccccc1-c1nc2cc(CN3CCCC3)cnc2s1 [PCM-0215812],57.9,–
OC[C@H]1O[C@@H](Oc2cc(O)cc(/C=C/c3ccc(O[C@@H]4O[C@H](CO)[C@@H](O)[C@H](O)[C@H]4O)cc3O)c2)[C@H](O)[C@@H](O)[C@@H]1O [PCM-0216371],-5.4,–
CN(C)C(=O)C(CCN1CCC(O)(c2ccc(Cl)cc2)CC1)(c1ccccc1)c1ccccc1 [PCM-0065584],18.7,–
O=C1c2ccc(Nc3ccc(F)cc3F)cc2CCc2ccc(OC[C@H](O)CO)cc21 [PCM-0215248],13.1,–
COc1ccc(-c2ccc3c(N4CCOCC4)nc(N4C[C@@H](C)O[C@@H](C)C4)nc3n2)cc1CO [PCM-0094955],-12.4,–
O=c1ncn2nc(Sc3ccc(F)cc3F)ccc2c1-c1c(Cl)cccc1Cl [PCM-0214781],40,–
C[C@H](NC(=O)Cc1cc(F)cc(F)c1)C(=O)N[C@H](C(=O)OC(C)(C)C)c1ccccc1 [PCM-0095251],-29,–
CN(C[C@@H]1COCCO1)S(=O)(=O)Nc1ccc2ccc3ncc(-c4cnn(C)c4)cc3c(=O)c2c1 [PCM-0095338],33.1,–
O=S(=O)(O)NC1CCCCC1 [PCM-0090618],3.9,–
CC(=O)N1CCN(c2ccc(OC[C@@H]3CO[C@@](Cn4ccnc4)(c4ccc(Cl)cc4Cl)O3)cc2)CC1 [PCM-0065423],-29.8,–
CC(C)=CCC[C@](C)(O)[C@H]1CC[C@]2(C)[C@@H]1[C@H](O)C[C@@H]1[C@@]3(C)CC[C@H](O)C(C)(C)[C@@H]3[C@@H](O)C[C@]12C [PCM-0214875],17.9,–
O=C(O)C(O)C(O)C(=O)O (stereo not shown) [PCM-0215711],-0.9,–
C[C@H](CC(=O)C[C@@H](C)[C@H]1C[C@H](O)[C@@]2(C)C3=C(C(=O)C[C@]12C)[C@@]1(C)CCC(=O)C(C)(C)[C@@H]1C[C@@H]3O)C(=O)O [PCM-0214862],-6.2,–
O=C(O)CNC(=O)c1nc(Cl)c2ccccc2c1O [PCM-0215583],10.8,–
COc1c(C)c2c(c(O)c1C/C=C(\C)CCC(=O)OCCN1CCOCC1)C(=O)OC2 [PCM-0090398],-15.2,–
Cc1nc(NC(=O)N2CCC[C@H]2C(N)=O)sc1-c1csc(C(C)(C)C)n1 [PCM-0095518],7.6,–
Cc1ccc(Sc2cncc3sc(C(N)=O)cc23)cc1 [PCM-0095339],-3.9,–
C=C[C@]1(C)C[C@@H](OC(=O)CSC(C)(C)CNC(=O)[C@H](N)C(C)C)[C@]2(C)[C@H](C)CC[C@]3(CCC(=O)[C@H]32)[C@@H](C)[C@@H]1O [PCM-0214765],20.2,–
COC(=O)C[C@](O)(CCCC(C)(C)O)C(=O)O[C@@H]1C(OC)=C[C@]23CCCN2CCc2cc4c(cc2[C@H]13)OCO4 [PCM-0216341],4.6,–
O=S(=O)(N=Cc1c(O)ccc2ccccc12)c1cccs1 [PCM-0215452],-11.6,–
Nc1ncn([C@H]2C[C@H](O)[C@@H](CO)O2)c(=O)n1 [PCM-0094900],11,–
CC(C)(F)C[C@H](N[C@@H](c1ccc(-c2ccc(S(C)(=O)=O)cc2)cc1)C(F)(F)F)C(=O)NC1(C#N)CC1 [PCM-0094912],-23.3,–
Nc1ccc(-c2cccc(C(=O)Nc3cnc4nc(N5CCOCC5)oc4c3)n2)cn1 [PCM-0215899],2.1,–

SMILES,inhibition at 10 µM [1] [%],inhibition at 10 µM (read-out: BTK inhibition (%)) [%]
Cc1c(CN2CCC(Nc3ncnc4sc(CC(F)(F)F)cc34)CC2)ccc2[nH]c(C#N)cc12 [PCM-0215775],32.4,–
C[N+](C)(C)NCCC(=O)[O-] [PCM-0215179],-8.5,–
CN1CC(=O)N2[C@H](c3ccc4c(c3)OCO4)c3[nH]c4ccccc4c3C[C@@H]2C1=O [PCM-0214630],-6.2,–
Oc1ccc2ccccc2c1N=Nc1ccc(N=Nc2ccccc2)cc1 [PCM-0215976],-3.1,–
O=C(Nc1ccc(Cl)cc1)C1CCCN(C(=O)c2cccc(-c3ccco3)c2)C1 (stereo not shown) [PCM-0102067],40.9,–
CC(=O)O[C@H]1CC[C@H]2[C@@H]3CCC4=CC(=O)CCC4=C3C=C[C@]12C [PCM-0215062],–,2.3
COc1ccc(-c2nc3ccc(C4=NNC(=O)CC4C)cc3[nH]2)cc1 (stereo not shown) [PCM-0095109],-21.8,–
NC[C@H](O)c1ccc(O)c(O)c1 [PCM-0214713],-5.4,–
CCCCOc1ccc(C(=O)CCN2CCCCC2)cc1 [PCM-0085815],-10.1,–
O=C(O)c1nn(Cc2ccc(Cl)cc2Cl)c2ccccc12 [PCM-0065622],11,–
COC(=O)C1=CC[C@@]23CC[C@@H]([C@@](C)(/C=C/C=C(\C)C(=O)O)OC2=O)[C@@]3(OC(C)=O)CC1 [PCM-0216239],2.1,–
Cc1[nH]c(/C=C2\C(=O)Nc3ccc(S(=O)(=O)N(C)c4cccc(Cl)c4)cc32)c(C)c1C(=O)N1CCN(C)CC1 [PCM-0095046],6.9,–
CC[C@@H](N)CNc1ccnc(-c2cc(-c3cnn(C)c3)ccc2O)n1 [PCM-0215825],2.8,–
C[C@H](NC(=O)CCC(F)(F)F)C(=O)N[C@@H]1C(=O)N(CCO)c2ncccc2-c2ccccc21 [PCM-0215760],15.4,–
CCCCCCCCCCCCCC(=O)OCC(COC(=O)CCCCCCCCCCCCC)OC(=O)CCCCCCCCCCCCC [PCM-0216465],-18.7,–
O=P(O)(O)OC1C(OP(=O)(O)O)C(OP(=O)(O)O)C(OP(=O)(O)O)C(OP(=O)(O)O)C1OP(=O)(O)O (stereo not shown) [PCM-0215940],21.3,–
CC12CCC(CC1=O)C2(C)C (stereo not shown) [PCM-0214819],-3.9,–
C=CC(=O)Nc1cc(Nc2nccc(-n3cc(CN(C)C)c(-c4ccccc4)n3)n2)c(OC)cc1N1CCOCC1 [PCM-0216259],11.1,–
CCOc1ccc(Cc2cc([C@@H]3O[C@H](SC)[C@@H](O)[C@H](O)[C@H]3O)ccc2Cl)cc1 [PCM-0215557],-17.8,–
COC1=C[C@]23CCCN2CCc2cc4c(cc2[C@@H]3[C@@H]1O)OCO4 [PCM-0214978],–,0
COc1ccc([C@@H]2CC(=O)c3c(O)cc(O[C@@H]4O[C@H](CO)[C@@H](O)[C@H](O)[C@H]4O[C@@H]4O[C@@H](C)[C@H](O)[C@@H](O)[C@H]4O)cc3O2)cc1 [PCM-0216440],2.3,–
COC(=O)c1ccc([C@H]2C3Nc4ccccc4C3C[C@H](C(=O)OC)N2C(=O)CCl)cc1 (stereo partly shown) [PCM-0214584],35.5,–
OC(c1ccccc1)(c1ccccc1)C12CC[N+](CCOCc3ccccc3)(CC1)CC2 [PCM-0214921],-34.2,–
O=C[C@H](O)[C@@H](O)[C@H](O[C@H]1O[C@H](CO)[C@@H](O[C@H]2O[C@H](CO)[C@@H](O[C@H]3O[C@H](CO)[C@@H](O[C@H]4O[C@H](CO)[C@@H](O)[C@H](O)[C@H]4O)[C@H](O)[C@H]3O)[C@H](O)[C@H]2O)[C@H](O)[C@H]1O)[C@H](O)CO [PCM-0216396],3.1,–
CCOc1ccc2ccccc2c1C(=O)N[C@@H]1C(=O)N2[C@@H]1SC(C)(C)[C@@H]2C(=O)O [PCM-0214744],-11.7,–
CCOC(=O)/C=C/c1ccc(O)c(O)c1 [PCM-0216571],17.8,–
